Assay results: paper PMC8071358, “Targeting of the Essential acpP, ftsZ, and rne Genes in Carbapenem-Resistant Acinetobacter baumannii by Antisense PNA Precision Antibacterials” (Biomedicines, 2021)
Values after ≈ are worked out from the molar mass of the structure shown. Where two headings read alike, the source gives them in different places. {(KFF)3K-eg1} = H-(KFF)3K peptide (K lysine, F phenylalanine) with eg1 linker (8-amino-3,6-dioxaoctanoyl), on the PNA N terminus (5' end); {NH2} = C-terminal amide

Tests used:
Format in all cases: cell-based, Acinetobacter baumannii
[1] = tested on: A. baumannii ATCC 19606 type strain; assay: Antibiotic MIC (CLSI microdilution or gradient strips); conditions: for MIC: Acinetobacter baumannii, ATCC19606
Experimental: (§1) All minimum inhibitory concentration (MIC) determinations for antibiotics were performed by the standard microdilution method in 96-well microplate (Thermo-Scientific, Roskilde, Denmark) or by gradient test strips (Liofilchem, Italy) according to the Clinical and Laboratory Standards Institute guidelines. Escherichia coli ATCC 25922 was used as control.

CRAB strain AC1 = assay: as above; conditions: for MIC: Acinetobacter baumannii, AC1, wound isolate
Experimental: as §1

CRAB strain AC2 [2] = assay: as above; conditions: for MIC: Acinetobacter baumannii
Experimental: as §1

CRAB strain AC3 = assay: as above; conditions: for MIC: Acinetobacter baumannii, AC3, sputum isolate
Experimental: as §1

CRAB strain AC46 [3] = assay: as above; conditions: for MIC: Acinetobacter baumannii
Experimental: as §1

CRAB strain AC4 = assay: as above; conditions: for MIC: Acinetobacter baumannii
Experimental: as §1

CRAB strain AC8 = assay: as above; conditions: for MIC: Acinetobacter baumannii
Experimental: as §1

CRAB strain AC9 = assay: as above; conditions: for MIC: Acinetobacter baumannii
Experimental: as §1

CRAB strain SSI1104 = assay: as above; conditions: for MIC: Acinetobacter baumannii, SSI1104
Experimental: as §1

CRAB strain AC6 = assay: as above; conditions: for MIC: Acinetobacter baumannii
Experimental: (§2) All minimum inhibitory concentration (MIC) determinations for antibiotics were performed by the standard microdilution method in 96-well microplate (Thermo-Scientific, Roskilde, Denmark) or by gradient test strips (Liofilchem, Italy) according to the Clinical and Laboratory Standards Institute guidelines.

CRAB strain AC7 = assay: as above; conditions: for MIC: Acinetobacter baumannii
Experimental: as §2

CRAB strain AC44 [4] = assay: as above; conditions: for MIC: Acinetobacter baumannii, AC44, urine isolate
Experimental: as §1

CRAB strain AC5 = assay: as above; conditions: for MIC: Acinetobacter baumannii, AC5, urine isolate
Experimental: as §1

A. baumannii ATCC 19606 = assay: BPP-PNA MIC, broth microdilution; conditions: 37 °C, 18 h
Experimental: (§3) MIC values were determined by broth microdilution according to standard protocols with a few modifications. An overnight bacterial cell culture was diluted to approximately 5 × 10^5 CFU/mL in non-cation-adjusted Muller Hinton Broth (MHB). Then, 180 µL bacterial solutions were dispensed into a low-bind 96-well plate (Thermo-Scientific, Roskilde, Denmark) along with 20 µL of BPP-PNA compound (BPP-PNA was serially diluted 2-fold from 16 to 0.5 µM in a 96-well plate). The plate was incubated in a Tecan Genios plate reader (GMI, Minnesota, Ramsey, USA) at 37 °C for 18 h with linear shaking, OD was measured every 20 min at 595 nm. […] The minimum bactericidal concentration (MBC) values were determined by plating 10 µL samples from the wells with no visible turbidity onto Mueller–Hinton agar plates. The MBC is determined the lowest concentration of BPP-PNA that reduces the viability of the initial bacterial inoculum by ≥99.9% (3-log reduction in CFU/mL). A minimum of two independent experiments (biological replicates) of the assay were conducted, and two technical replicates were used in each experiment for each bacterium, compound, and concentration.

CRAB strain AC2 [5] = assay: BPP-PNA MIC, broth microdilution
Experimental: as §3

CRAB strain AC44 [6] = assay: BPP-PNA MIC, broth microdilution
Experimental: as §3

A. baumannii SSI1104 = assay: BPP-PNA MIC, broth microdilution
Experimental: as §3, with “An overnight bacterial cell culture was diluted to approximately 5 × 10^5 CFU/mL in non-cation-adjusted Muller Hinton Broth (MHB).” left out

CRAB strain AC46 [7] = assay: BPP-PNA MIC, broth microdilution
Experimental: as §3, with “An overnight bacterial cell culture was diluted to approximately 5 × 10^5 CFU/mL in non-cation-adjusted Muller Hinton Broth (MHB).” left out

[8] = AC2, wound isolate, CLSI, read-out: MIC, AC2
[9] = AC46, sputum isolate, CLSI, read-out: MIC, AC46
[10] = AC4, trachea isolate, CLSI, read-out: MIC, AC4
[11] = AC8, sputum isolate, CLSI, read-out: MIC, AC8
[12] = AC9, CSF isolate, CLSI, read-out: MIC, AC9
[13] = AC6, blood isolate, CLSI, read-out: MIC, AC6
[14] = AC7, blood isolate, CLSI, read-out: MIC, AC7
[15] = Table 4 (anti-rne), brand of medium not given, non-cation-adjusted MHB by method
[16] = Sigma MHB medium without cation, 37 °C, 18 h

Molecule | MIC [1] [µg/mL] | MIC (CRAB strain AC1) [µg/mL] | MIC (CRAB strain AC3) [µg/mL] | MIC (CRAB strain SSI1104) [µg/mL] | MIC (CRAB strain AC2 [2]; [8]) [µg/mL] | MIC (CRAB strain AC44 [4]) [µg/mL] | MIC (CRAB strain AC46 [3]; [9]) [µg/mL] | MIC (CRAB strain AC4; [10]) [µg/mL] | MIC (CRAB strain AC5) [µg/mL] | MIC (CRAB strain AC8; [11]) [µg/mL] | MIC (CRAB strain AC9; [12]) [µg/mL] | MIC (CRAB strain AC6; [13]) [µg/mL] | MIC (CRAB strain AC7; [14]) [µg/mL] | further results
CNC(C)C1CCC(N)C(OC2C(N)CC(N)C(OC3OCC(C)(O)C(NC)C3O)C2O)O1 (stereo not drawn) [Gentamicin] | 4 (≈ 8.38 µM) | 8 (≈ 16.8 µM) | 8 (≈ 16.8 µM) | 32 (≈ 67 µM) |  |  |  |  |  |  |  |  |  | MIC (CRAB strain AC2 [2]; AC2, read-out: MIC, AC2): 16 µg/mL (≈ 33.5 µM); MIC (CRAB strain AC46 [3]; AC46, read-out: MIC, AC46): 16 µg/mL (≈ 33.5 µM); MIC (CRAB strain AC4; AC4, read-out: MIC, AC4): 16 µg/mL (≈ 33.5 µM); MIC (CRAB strain AC8; AC8, read-out: MIC, AC8): 16 µg/mL (≈ 33.5 µM); MIC (CRAB strain AC9; AC9, read-out: MIC, AC9): 16 µg/mL (≈ 33.5 µM); MIC (CRAB strain AC6; AC6, read-out: MIC, AC6): 16 µg/mL (≈ 33.5 µM); MIC (CRAB strain AC7; AC7, read-out: MIC, AC7): 16 µg/mL (≈ 33.5 µM)
CN(C)c1cc(NC(=O)CNC(C)(C)C)c(O)c2c1C[C@H]1C[C@H]3[C@H](N(C)C)C(O)=C(C(N)=O)C(=O)[C@@]3(O)C(O)=C1C2=O [Tigecycline] | 0.5 (≈ 0.854 µM) | 0.5 (≈ 0.854 µM) | 0.5 (≈ 0.854 µM) | 1 (≈ 1.71 µM) | 1 (≈ 1.71 µM) | 1 (≈ 1.71 µM) | 0.5 (≈ 0.854 µM) | 1 (≈ 1.71 µM) | 1 (≈ 1.71 µM) | 1 (≈ 1.71 µM) | 1 (≈ 1.71 µM) | 1 (≈ 1.71 µM) | 1 (≈ 1.71 µM) | 
C[C@@H](O)[C@H]1C(=O)N2C(C(=O)O)=C(SCCN=CN)C[C@H]12 [Imipenem] | 1 (≈ 3.34 µM) | 8 (≈ 26.7 µM) | 32 (≈ 107 µM) |  | 16 (≈ 53.4 µM) | 16 (≈ 53.4 µM) | 16 (≈ 53.4 µM) | 8 (≈ 26.7 µM) | 16 (≈ 53.4 µM) | 16 (≈ 53.4 µM) | 16 (≈ 53.4 µM) | 16 (≈ 53.4 µM) | 16 (≈ 53.4 µM) | 
C[C@@H](O)[C@H]1C(=O)N2C(C(=O)O)=C(S[C@@H]3CN[C@H](C(=O)N(C)C)C3)[C@H](C)[C@H]12 [Meropenem] | 1 (≈ 2.61 µM) | 4 (≈ 10.4 µM) | 4 (≈ 10.4 µM) | > 16 | 16 (≈ 41.7 µM) | 16 (≈ 41.7 µM) | 16 (≈ 41.7 µM) | 16 (≈ 41.7 µM) | 16 (≈ 41.7 µM) | 16 (≈ 41.7 µM) | 16 (≈ 41.7 µM) | 16 (≈ 41.7 µM) | 16 (≈ 41.7 µM) | 
CC(C)(O/N=C(\C(=O)N[C@@H]1C(=O)N2C(C(=O)[O-])=C(C[n+]3ccccc3)CS[C@H]12)c1csc(N)n1)C(=O)O [Ceftazidime] | 8 (≈ 14.6 µM) | 64 (≈ 117 µM) | 64 (≈ 117 µM) | > 8 | 64 (≈ 117 µM) | 256 (≈ 468 µM) | 128 (≈ 234 µM) | 64 (≈ 117 µM) | 32 (≈ 58.5 µM) | 64 (≈ 117 µM) | 32 (≈ 58.5 µM) | 32 (≈ 58.5 µM) | 64 (≈ 117 µM) | 
CN(C)[C@@H]1C(O)=C(C(N)=O)C(=O)[C@@]2(O)C(O)=C3C(=O)c4c(O)cccc4[C@@](C)(O)[C@H]3C[C@@H]12 [Tetracycline] | 1 (≈ 2.25 µM) |  |  |  |  | 256 (≈ 576 µM) | 128 (≈ 288 µM) |  |  | 32 (≈ 72 µM) | 32 (≈ 72 µM) |  |  | 
H-(KFF)3K-eg1-ATACGTTTCAT-NH2 (all peptide nucleic acid (PNA), 5' {(KFF)3K-eg1}, 3' {NH2}) [PNA 5654, anti-rne peptide-PNA conjugate, match, +1 to +11] |  |  |  |  |  |  |  |  |  |  |  |  |  | MIC, ATCC 19606 (A. baumannii ATCC 19606; [15]): 2 µM; MIC, AC2 (CRAB strain AC2 [5]; [15]): 2 µM; MIC, AC44 (CRAB strain AC44 [6]; [15]): 1 µM; MIC, SSI 1104 (A. baumannii SSI1104; [15]): 2 µM; MIC, AC46 (CRAB strain AC46 [7]; [15]): 2 µM
H-(KFF)3K-eg1-ATACCGCTTAC-NH2 (all peptide nucleic acid (PNA), 5' {(KFF)3K-eg1}, 3' {NH2}) [PNA 5653, anti-acpP mismatch control of 5652] |  |  |  |  |  |  |  |  |  |  |  |  |  | MIC, ATCC 19606 (A. baumannii ATCC 19606; Sigma MHB medium without cation, ~5 × 10^5 CFU/mL, OD595 < 0.1): 4 µM; MIC, AC2 (CRAB strain AC2 [5]; [16]): 4 µM; MIC, AC44 (CRAB strain AC44 [6]; [16]): 4 µM; MIC, SSI 1104 (A. baumannii SSI1104; [16]): 4 µM; MIC, AC46 (CRAB strain AC46 [7]; [16]): 4 µM
Colistin |  |  |  |  |  |  |  |  |  |  |  |  |  | MIC, ATCC 19606 [1]: 1 µg/mL; MIC, AC1 (CRAB strain AC1; wound isolate): 1 µg/mL; MIC, AC2 (CRAB strain AC2 [2]; wound isolate, CLSI): 1 µg/mL; MIC, AC3 (CRAB strain AC3; sputum isolate): 1 µg/mL; MIC, AC44 (CRAB strain AC44 [4]; urine isolate): 0.5 µg/mL; MIC, AC46 (CRAB strain AC46 [3]; sputum isolate, CLSI): 1 µg/mL; MIC, AC4 (CRAB strain AC4; trachea isolate, CLSI): 1 µg/mL; MIC, AC5 (CRAB strain AC5; urine isolate): 1 µg/mL; MIC, AC8 (CRAB strain AC8; sputum isolate, CLSI): 1 µg/mL; MIC, AC9 (CRAB strain AC9; CSF isolate, CLSI): 1 µg/mL; MIC, SSI 1104 (CRAB strain SSI1104): 1 µg/mL; MIC, AC6 (CRAB strain AC6; blood isolate, CLSI): 1 µg/mL; MIC, AC7 (CRAB strain AC7; blood isolate, CLSI): 1 µg/mL
